Tests used:
PC3 cells = assay: mRNA level of HuR target Msi2 after docetaxel treatment; format: cell-based
Text: FIGS. 1A-F provide the results of studies illustrating RNA-binding protein Hu antigen R (HuR) is involved in chemo/radiation-induced tumor response. […] HuR knock-down by siRNA sensitized cancer cells to X-ray radiation, with an enhancement ratio (ER) of 1.5 versus the negative control (NC) siRNA (FIG. 1F).

[1] = tested on: MDA-MB-231 mouse xenograft; assay: MDA-MB-231 mouse xenograft model, KH-39 alone and with docetaxel; format: in vivo, mice; conditions: after three-week treatment; KH-39 i.p. 50 mg/kg 5 times per week; TXT i.v.; ***P<0.001, ****P<0.0001, n=12
Text: Cytotoxicity assays (as described earlier in this disclosure) for various cancer cell lines will also be performed utilizing concentrations of a compound of the present technology that are below the lethal threshold for the compound for the particular cancer (a “sub-lethal concentration”) in combination with a chemotherapeutic compound (e.g., docetaxel or doxorubicin) to illustrate compounds of the present technology sensitize cancer cell lines to chemotherapy. By way of illustration in an in vivo model, in vivo antitumor efficacy of KH-39 was examined in combination with docetaxel (a first-line chemotherapy for human breast cancer) in a MDA-MB-231 mouse xenograft model. For this, tumor-bearing female athymic mice were provided according to the protocols described earlier in the present disclosure and were randomized into four groups. One group of mice was treated with KH-39 (i.p. 50 mg/kg, 5 times per week), one group with docetaxel (TXT; i.v. at the dosages and time intervals indicated in FIG. 12), one group with a combination of KH-39 and TXT (KH-39 i.p. 50 mg/kg, 5 times per week and TXT i.v. at the dosages and time intervals indicated in FIG. 12), and one group of mice as the vehicle control. FIG. 12 illustrates the results, providing the tumor growth curves for each group.

CC(=O)O[C@@]12CO[C@@H]1C[C@H](O)[C@@]1(C)C(=O)[C@H](O)C3=C(C)[C@@H](OC(=O)[C@H](O)[C@@H](NC(=O)OC(C)(C)C)c4ccccc4)C[C@@](O)([C@@H](OC(=O)c4ccccc4)[C@H]21)C3(C)C [docetaxel, reference compound]
mRNA levels of HuR target Musashi 2 (Msi2) (PC3 cells): increased the mRNA levels of HuR target Musashi 2 (Msi2)
relative tumor sizes versus control group [1]: significantly smaller than those in control group
